The record followed here is PubChem BioAssay (NCI).

Among the test systems are SN12C renal; IGROV1 ovarian; HOP-18 NSCLC; COLO 205 colon; DMS 114 small cell lung; NCI-H23 lung; U251 CNS; HCT-15 colon; TK-10 renal; SK-OV-3 ovarian.
Common to all, as to assay: inhibition of tumour cell growth, NCI panel, 48 h

Where “and” joins values, the source holds several entries; their conditions need not be identical. Identical values can stand only once.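 48-hour exposure; five concentrations; linearly interpolated endpoints. The concentration for 50% growth inhibition is given as GI50. TGI: concentration producing complete growth inhibition.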

As for `O=c1[nH]cc(C(F)(C(F)(F)F)C(F)(F)F)c(=O)[nH]1`, the TGI with SN12C renal, in the assay on IGROV1 ovarian, in the assay with HOP-18 NSCLC, with COLO 205 colon, with DMS 114 small cell lung and with NCI-H23 lung was above 100 µM in each case. The TGI with U251 CNS, with HCT-15 colon, with TK-10 renal and with SK-OV-3 ovarian was above 100 µM throughout.

As for `COc1ccc(C)cc1C1CCC(=O)O1` (stereo unspecified), the TGI in the assay with SN12C renal, in the assay with IGROV1 ovarian, with HOP-18 NSCLC, in the assay on COLO 205 colon, with DMS 114 small cell lung and in the assay with NCI-H23 lung was above 100 µM each time. The TGI with U251 CNS, with HCT-15 colon, in the assay with TK-10 renal and in the assay with SK-OV-3 ovarian was above 100 µM throughout.

For `COc1cc(C(C#N)NNc2nc(C)cc(=O)[nH]2)cc(OC)c1OC` (stereo unspecified), the TGI with SN12C renal, with IGROV1 ovarian, with HOP-18 NSCLC, in the assay on COLO 205 colon, in the assay with NCI-H23 lung and with U251 CNS was above 100 µM each time. The TGI in the assay with HCT-15 colon, in the assay on TK-10 renal and in the assay with SK-OV-3 ovarian was above 100 µM throughout.

Turning to `CC(C)N1C(C)[C@@H](c2ccccc2)O[P@]1(=O)CC1=CCCCC1` (stereo partly specified), the TGI with SN12C renal, in the assay on IGROV1 ovarian, in the assay on HOP-18 NSCLC, in the assay with COLO 205 colon, in the assay with DMS 114 small cell lung and with NCI-H23 lung was above 100 µM each time. Moreover, the TGI in the assay on U251 CNS, with HCT-15 colon, in the assay with TK-10 renal and in the assay with SK-OV-3 ovarian was above 100 µM in each case.

As to `C/C(=N\NS(=O)(=O)c1ccc([N+](=O)[O-])cc1)c1ccc[n+]([O-])n1`, the TGI in the assay on SN12C renal worked out at 12 µM; in the assay with IGROV1 ovarian it was 20.9 µM; in the assay on HOP-18 NSCLC it was 68.2 µM; in the assay on COLO 205 colon it was 6.56 µM; in the assay on DMS 114 small cell lung, 4.75 µM; in the assay on NCI-H23 lung, 3.6 µM. Besides, the TGI came out at 5.06 µM in the assay with U251 CNS, 24.9 µM in the assay on HCT-15 colon, 25.9 µM in the assay with TK-10 renal and 7.24 µM with SK-OV-3 ovarian.

As for `CCCCCCCCCCCCCCCCCC(=O)NCC(COP(=O)(O)O)OCC` (stereo unspecified), the TGI in the assay on SN12C renal was 46.4 µM; in the assay with IGROV1 ovarian it was above 100 µM; in the assay with COLO 205 colon, above 100 µM; with DMS 114 small cell lung, above 100 µM; with NCI-H23 lung it was 30.1 µM; in the assay on TK-10 renal, above 100 µM. Besides, the TGI in the assay with SK-OV-3 ovarian was above 100 µM.

`COc1ccc(NC(=O)C2C(=O)N(c3ccc(OC)cc3)C(=O)/C2=N\NC(N)=O)cc1` (stereo unspecified): the TGI was above 100 µM in the assay with SN12C renal; 45 µM with IGROV1 ovarian; 70.7 µM in the assay with HOP-18 NSCLC; above 100 µM with COLO 205 colon; above 100 µM in the assay with DMS 114 small cell lung; above 100 µM in the assay with NCI-H23 lung. The TGI in the assay with U251 CNS was 35.4 µM; in the assay on HCT-15 colon, above 100 µM; with TK-10 renal it was 70.9 µM; with SK-OV-3 ovarian, 49 µM.

On to `c1ccc(-c2ccnc3c2ccc2c(-c4ccccc4)ccnc23)cc1`, for which the TGI came to 6.54 µM in the assay on SN12C renal; 18.2 µM in the assay with IGROV1 ovarian; 11.4 µM in the assay with HOP-18 NSCLC; 6.71 µM in the assay with COLO 205 colon; 12.7 µM in the assay with DMS 114 small cell lung; 14.1 µM with NCI-H23 lung. Further, the values for the TGI in the assay with U251 CNS, in the assay with TK-10 renal and in the assay with SK-OV-3 ovarian were 6.79 µM, 0.994 µM and 11.6 µM, respectively.

On to `Cc1noc(/N=C2\C=C(Nc3onc(C)c3C)C(=O)c3ccccc32)c1C`, for which the TGI in the assay on SN12C renal, in the assay on IGROV1 ovarian, with HOP-18 NSCLC, in the assay on COLO 205 colon, in the assay on DMS 114 small cell lung and in the assay with NCI-H23 lung was above 100 µM in each case. The TGI with U251 CNS, in the assay with HCT-15 colon, with TK-10 renal and with SK-OV-3 ovarian was above 100 µM in each case.

Regarding `COC(=O)C(C(=O)C(N)=O)c1csc(-n2nc(-c3ccccc3)cc2-c2ccccc2)n1` (stereo unspecified), the TGI in the assay with IGROV1 ovarian is above 31.6 µM; with HOP-18 NSCLC, above 31.6 µM; in the assay with COLO 205 colon, above 31.6 µM; with DMS 114 small cell lung, 25.2 µM; with NCI-H23 lung it was above 100 µM; with U251 CNS, above 31.6 µM. Further, the TGI with HCT-15 colon, in the assay on TK-10 renal and in the assay with SK-OV-3 ovarian was above 31.6 µM each time.

On to `CC(/C=N/N=C(N)N)=N\N=C(N)N`, for which the TGI in the assay on SN12C renal was 941 µM; with IGROV1 ovarian, 1640 µM; in the assay with HOP-18 NSCLC, 2060 µM; in the assay on COLO 205 colon, 33.1 µM and 21.5 µM; in the assay on DMS 114 small cell lung, 171 µM; in the assay on NCI-H23 lung, > 61.8 µM and 171 µM. For the same molecule, the TGI in the assay on U251 CNS was 403 µM; in the assay on HCT-15 colon, 2500 µM; in the assay with TK-10 renal, 813 µM; with SK-OV-3 ovarian, 546 µM. For the same molecule, the GI50 is 4.26 µM in the assay on COLO 205 colon; 95.4 µM with DMS 114 small cell lung; 31.1 µM in the assay on NCI-H23 lung; 47.7 µM in the assay with U251 CNS; above 51.4 µM with HCT-15 colon; 32.3 µM in the assay with TK-10 renal.

For the molecule `S=c1c2ccccc2c(=S)n2n1CC=CC2`, the TGI in the assay on SN12C renal, with IGROV1 ovarian, with HOP-18 NSCLC, with COLO 205 colon, in the assay with DMS 114 small cell lung and in the assay on NCI-H23 lung was above 100 µM in each case. Further, the TGI with U251 CNS, with HCT-15 colon, in the assay on TK-10 renal and in the assay on SK-OV-3 ovarian was above 100 µM in each case.

As to `c1ccc(-c2nnc3nn4c(-c5ccccc5)cnnc4c3c2-c2ccccc2)cc1`, the TGI in the assay on SN12C renal, with HOP-18 NSCLC, in the assay with DMS 114 small cell lung, in the assay with NCI-H23 lung, in the assay with U251 CNS and with HCT-15 colon was above 100 µM each time. In addition, the TGI in the assay with TK-10 renal was 83.1 µM.

With `COc1ccc2c([nH]c3c(O)c(-c4c(C)cc5c([nH]c6c(CC=C(C)C)c(OC)ccc65)c4O)c(C)cc32)c1CC=C(C)C`, the TGI in the assay with SN12C renal, in the assay on IGROV1 ovarian, in the assay with HOP-18 NSCLC, with COLO 205 colon, in the assay on DMS 114 small cell lung and in the assay with NCI-H23 lung was above 100 µM throughout. Besides, the TGI in the assay with U251 CNS, in the assay on HCT-15 colon, in the assay on TK-10 renal and in the assay on SK-OV-3 ovarian was above 100 µM throughout.

Take `C#CCOCn1cnc2ncnc(N)c21`: the TGI in the assay with SN12C renal, with IGROV1 ovarian, in the assay with HOP-18 NSCLC, in the assay with COLO 205 colon, in the assay on DMS 114 small cell lung and in the assay on NCI-H23 lung was above 100 µM throughout. In addition, the TGI in the assay on U251 CNS, in the assay with TK-10 renal and in the assay with SK-OV-3 ovarian was above 100 µM throughout.

Turning to `CC(=O)c1c2c(cc3c1CC1(C3)Cc3cc4c(c(C(=O)O)c3C1)CCC4)CCC2` (stereo unspecified), the TGI with SN12C renal is above 100 µM; in the assay with IGROV1 ovarian it was above 100 µM; with HOP-18 NSCLC, above 100 µM; with COLO 205 colon it was 68.1 µM; with DMS 114 small cell lung, above 100 µM; with NCI-H23 lung it was 66.8 µM. Moreover, the TGI was 70.6 µM with U251 CNS and above 100 µM with TK-10 renal.

In the case of `O=CCCCC(Sc1ccccc1)Sc1ccccc1`, the TGI was 56.7 µM with SN12C renal; 50.5 µM in the assay with IGROV1 ovarian; 57.9 µM in the assay on COLO 205 colon; 49 µM in the assay with DMS 114 small cell lung; 27.3 µM in the assay on NCI-H23 lung; 30.3 µM in the assay on U251 CNS. Besides, the TGI is 33.2 µM in the assay with HCT-15 colon, above 100 µM in the assay with TK-10 renal and 59.4 µM in the assay with SK-OV-3 ovarian.

For `CC(=O)OC(=O)O/C=C\CCl`, the TGI with SN12C renal, in the assay on IGROV1 ovarian, in the assay on HOP-18 NSCLC, in the assay with COLO 205 colon, in the assay on DMS 114 small cell lung and with U251 CNS was above 100 µM throughout. The TGI in the assay on HCT-15 colon, in the assay with TK-10 renal and in the assay with SK-OV-3 ovarian was above 100 µM throughout.

`CCc1cc(Cc2ccc(C)c(NC(=O)C(=O)C3C(=O)NC(=O)NC3=O)c2CC)cc(C)c1NC(=O)C(=O)C1C(=O)NC(=O)NC1=O`: the TGI in the assay with IGROV1 ovarian, in the assay with COLO 205 colon, in the assay on DMS 114 small cell lung, with NCI-H23 lung, in the assay on U251 CNS and in the assay with HCT-15 colon was above 100 µM in each case. Moreover, the TGI with TK-10 renal and in the assay on SK-OV-3 ovarian was above 100 µM each time.

On to `CCOC(=O)c1c(C)n(Cc2ccccc2)c2c1cc1oc(=O)c(=O)n3cnc2c13`, for which the GI50 was 10.4 µM in the assay on SN12C renal; 28.1 µM in the assay with IGROV1 ovarian; 12.8 µM in the assay with COLO 205 colon; 14.4 µM in the assay with NCI-H23 lung; 12 µM in the assay on U251 CNS; 16.2 µM with HCT-15 colon. For the same molecule, the values for the GI50 in the assay on TK-10 renal and in the assay on SK-OV-3 ovarian were 15.7 µM and above 50 µM, respectively. Also, the TGI with SN12C renal was 24.9 µM; in the assay with IGROV1 ovarian, above 50 µM; with COLO 205 colon it was 30.6 µM; in the assay with NCI-H23 lung it was above 50 µM; with U251 CNS, above 50 µM; in the assay with HCT-15 colon, above 50 µM. For the same molecule, the values for the TGI with TK-10 renal and with SK-OV-3 ovarian were 42.6 µM and above 50 µM, respectively.
